In the NIST ThermoML archive (doi:10.1021/acs.jced.9b00424):

Assay: xn = mol fraction of the nth substance listed
Details: for surface tension liquid-gas: Pendant drop shape; for viscosity: 100 kPa, Concentric cylinders viscometry; for viscosity / mass density: Liquid; for mass density: 101 kPa, Vibrating tube method

CCCCCCCC(=O)O [octanoic acid] + CC(C)[C@@H]1CC[C@@H](C)C[C@H]1O
Details	mass density [kg/m3]	surface tension liquid-gas [mN/m]	viscosity [mPa·s]
297.82 K, x2 = 0	–	30.95	–
298 K, x2 = 0.333	–	25.72	–
298.11 K, x2 = 0.5	–	26.67	–
298.15 K, x2 = 0	917.2	–	5.17
298.15 K, x2 = 0.25	914.7	–	7.61
298.15 K, x2 = 0.333	914.1	–	8.81
298.15 K, x2 = 0.5	912.3	–	12.18
298.15 K, x2 = 0.667	910.3	–	17.71
298.15 K, x2 = 0.75	909.3	–	20.82
298.16 K, x2 = 0.25	–	23.32	–
298.2 K, x2 = 0.75	–	23.77	–
298.24 K, x2 = 0.667	–	20.94	–
302.68 K, x2 = 0	–	30.04	–
303.04 K, x2 = 0.5	–	25.67	–
303.15 K, x2 = 0	910.3	–	4.54
303.15 K, x2 = 0.25	908	–	6.46
303.15 K, x2 = 0.333	907.4	–	7.37
303.15 K, x2 = 0.5	905.7	–	9.83
303.15 K, x2 = 0.667	903.7	–	13.65
303.15 K, x2 = 0.75	902.7	–	15.46
303.69 K, x2 = 0.333	–	24.84	–
303.77 K, x2 = 0.667	–	20.53	–
303.85 K, x2 = 0.25	–	22.25	–
303.88 K, x2 = 0.75	–	23	–
307.73 K, x2 = 0.5	–	24.67	–
308.15 K, x2 = 0	903.8	–	4.01
308.15 K, x2 = 0.25	901.7	–	5.54
308.15 K, x2 = 0.333	901.1	–	6.23
308.15 K, x2 = 0.5	899.5	–	8.06
308.15 K, x2 = 0.667	897.6	–	10.73
308.15 K, x2 = 0.75	896.6	–	11.94
308.49 K, x2 = 0	–	28.56	–
308.53 K, x2 = 0.333	–	24.25	–
308.73 K, x2 = 0.25	–	21.65	–
308.75 K, x2 = 0.667	–	20.24	–
308.78 K, x2 = 0.75	–	22.27	–
312.93 K, x2 = 0	–	27.56	–
313.15 K, x2 = 0	897.6	–	3.59
313.15 K, x2 = 0.25	895.6	–	4.81
313.15 K, x2 = 0.333	895.1	–	5.35
313.15 K, x2 = 0.5	893.5	–	6.72
313.15 K, x2 = 0.667	891.7	–	8.62
313.15 K, x2 = 0.75	890.6	–	9.42
313.17 K, x2 = 0.333	–	23.9	–
313.35 K, x2 = 0.5	–	23.58	–
314.11 K, x2 = 0.25	–	21.16	–
314.26 K, x2 = 0.667	–	19.94	–
314.39 K, x2 = 0.75	–	21.81	–
317.8 K, x2 = 0	–	26.06	–
318.12 K, x2 = 0.5	–	22.74	–
318.15 K, x2 = 0	891.7	–	3.2
318.15 K, x2 = 0.25	889.9	–	4.18
318.15 K, x2 = 0.333	889.4	–	4.6
318.15 K, x2 = 0.5	887.9	–	5.63
318.15 K, x2 = 0.667	886.1	–	7
318.15 K, x2 = 0.75	885	–	7.53
318.42 K, x2 = 0.333	–	23.36	–
318.81 K, x2 = 0.667	–	19.7	–
318.88 K, x2 = 0.25	–	20.56	–
318.9 K, x2 = 0.75	–	21.15	–
322.15 K, x2 = 0	–	24.99	–
322.96 K, x2 = 0.333	–	22.93	–
322.97 K, x2 = 0.5	–	21.75	–
323.15 K, x2 = 0	–	–	2.88
323.15 K, x2 = 0.25	–	–	3.68
323.15 K, x2 = 0.333	–	–	4
